Among the data in patent US20260224574A1, “ANTIFUNGAL COMPOSITIONS AND METHODS OF USE THEREOF” (ARIZONA BOARD OF REGENTS ON BEHALF OF THE UNIVERSITY OF …, priority 2023, published 2026) are IC50 values, retold here.

This assay has as its system Cne H99 strain. In words: cell-based anti-Cryptococcus neoformans growth inhibition dose-response assay (resazurin to resorufin fluorescence). To be noted: Cne H99, concentration series 0.02-50 μM, 24 hours incubation. The procedure:
For primary screening, a cell-based high-throughput screening (HTS) assay was developed for testing the growth inhibition of Cne H99 strain of fungus. […] After standardizing the assay in 96 well plates, it was optimized in a 384-well plate.
The compound library included known bioactives, commercial libraries, and academic molecules. For HTS, the fungal cells were grown in SD broth overnight and diluted in Sabouraud dextrose (SD) broth to an optical density at 600 nm (OD600) of 0.5. […] From this cell suspension, 20 μL of the cells was added to each well of the 384-well assay plate (black, clear bottom) containing test compounds. Plates with test compounds were prepared by adding 20 μL of RPMI-MOPS medium to each well using a liquid dispenser (Thermo Multidrop Combi), followed by transferring 1 μL of the test compounds to all wells of the 22 columns in the assay plate using a robot. Dimethyl sulfoxide (DMSO) as vehicle control or 0.8 μM AmB as positive control was added manually to the remaining two columns using a multichannel pipet. […] Additionally, the absorbance was also read at 600 nm using the plate reader (EnVision, PerkinElmer).
Concentration series (0.02-50 μM) of test compounds and equalizing volume of DMSO were dispensed, using a liquid handler (D300e, Hewlett-Packard), to the 384-well plates. Following the addition of the Cne cells, the assay plates were incubated for 24 hours, followed by a fluorescence reading of resorufin as explained for single-concentration screening. The IC50 was calculated by graphpad prism.

[1] abbreviates: Cryptococcus neoformans, H99STRAIN.

In turn, `Clc1ccc(CCNc2ncnc3sccc23)cc1` [compound 1] yielded an IC50 of 0.35 µM.

The compound `c1ccc(CN2CCOc3ccccc3CCCCC3(CCNCC3)C2)cc1` [compound 2] returned an IC50 of 0.57 µM.

Turning to `COc1ccc(OCc2nnc3sc(-c4ccc5c(c4)OCCO5)nn23)cc1` [compound 3], it took 0.6 µM to reach half-maximal inhibition (IC50).

In turn, `Clc1cc(Cl)c(OCC#CI)cc1Cl` [compound 6] yielded an IC50 of 1.44 µM.

`CC[n+]1c(/C=C/C=C2/N(C)c3ccccc3C2(C)C)sc2ccccc21` [compound 7]: it took 1.57 µM to reach half-maximal inhibition under setting [1] (IC50).

With `OCCCNc1cc(-c2ccnc(Nc3cccc(Cl)c3)n2)ccn1` [compound 8], under setting [1], it took 1.66 µM to reach half-maximal inhibition (IC50).

Take `Cc1ccc(NC(=O)Nc2ncc(-c3ccccc3)n2C)cc1Cl` [compound 9]: the IC50 under setting [1] is 1.68 µM.

`Nc1ccc2ncnc(NCCc3ccc(Oc4ccccc4)cc3)c2c1` [compound 10] displayed an IC50 of 1.83 µM.

`O=c1nc(SCc2ccc(F)cc2)c2c(n1Cc1ccccc1)CCC2` [compound 11] gave an IC50 of 2.27 µM.

As to `CC(C)CCNCC(O)Cn1c2ccc(Br)cc2c2cc(Br)ccc21` (stereo not shown) [compound 12], it took 2.41 µM to reach half-maximal inhibition (IC50).

On to `O=C(O)c1ccc(-c2ccc3cc(C45CC6CC(CC(C6)C4)C5)c(O)cc3c2)cc1` [compound 13], for which inhibition was half-maximal at 2.46 µM (IC50).

In turn, `c1cc2c(cc1C1CCCCC1)c1c3n2CCNC3CCC1` (stereo not shown) [compound 14] registered a half-maximal inhibitory concentration (IC50) under setting [1] of 2.52 µM.

With `Cc1cccc2c1-c1sc(C(=O)NCCCN3CCC(Cc4ccccc4)CC3)cc1CO2` [compound 15], the IC50 under setting [1] amounted to 2.53 µM.

Take `CNC(=O)c1ccccc1Nc1nc(Nc2ccc(N3CCOCC3)cc2OC)ncc1Cl` [compound 16]: the IC50 under setting [1] was found to be 2.57 µM.

Under setting [1], `Clc1ccc(C(c2ccc(Cl)cc2)[n+]2ccn(CC(OCc3ccc(Cl)cc3Cl)c3ccc(Cl)cc3Cl)c2)cc1` (stereo not shown) [compound 17] came in with an IC50 of 2.63 µM.

Compound `Cc1ccc(CNc2nc(C)nc3onc(C)c23)cc1` [compound 18] yielded an IC50 under setting [1] of 2.73 µM.

For `Cc1nc(NCCC2=CCCCC2)c2c(C)noc2n1` [compound 19], under setting [1], the IC50 was determined as 2.92 µM.

For the compound `Cc1c(Cl)cccc1N1C(=O)C=CC1=O` [compound 20], under setting [1], the midpoint of inhibition, the IC50, lay at 2.95 µM.

`O=c1nc(SCc2ccccc2)c2c(n1Cc1ccccc1)CCC2` [compound 21] had a concentration for half-maximal inhibition (IC50) under setting [1] of 3 µM.

For `CCOC(=O)c1sc(NC(=O)c2ccco2)c(SC#N)c1C` [compound 22], the IC50 came to 3.11 µM.

`CCc1noc2nc(C)nc(NCCC3=CCCCC3)c12` [compound 23]: inhibition under setting [1] was half-maximal at 3.14 µM (IC50).

On to `Cc1ccc(Nc2nc3nonc3nc2Nc2ccccc2F)cc1Cl` [compound 24], for which the concentration for half-maximal inhibition (IC50) under setting [1] is 3.15 µM.

Under setting [1], `O=C(NNc1ccccc1)c1ccncc1` [compound 25] came in with an IC50 of 3.1 µM.

Under setting [1], `CCn1c2ccccc2c2cc(N3C(=O)C=CC3=O)ccc21` [compound 26] displayed an IC50 of 3.18 µM.

Under setting [1], `CCCCc1ccc(N2C(=O)C=CC2=O)cc1` [compound 27] showed an IC50 of 3.22 µM.

Under setting [1], `CCCCCCCCCCCCCCCC[N+](C)(C)CCN(Cc1ccc(OC)cc1)c1ncccn1` [compound 28] yielded an IC50 of 3.39 µM.

In turn, `COc1cccc(-c2cc(F)ccc2[C@H]2Cc3nc(N)nc(C)c3C(=O)N2)n1` [compound 29] returned an IC50 under setting [1] of 3.62 µM.

`CC(C)CCOc1cccc(OCC(=O)Nc2ccncc2)c1` [compound 30] came in with an IC50 under setting [1] of 3.94 µM.

In turn, `CCc1noc2ncnc(NCCC3=CCCCC3)c12` [compound 31] had a half-maximal inhibitory concentration (IC50) under setting [1] of 4.09 µM.

Under setting [1], `O=C1C=CC(=O)N1c1ccccc1Br` [compound 32] had an IC50 of 4.61 µM.

In the case of `Oc1cccnc1NC(c1ccc(Cl)cc1)c1ccc2cccnc2c1O` (stereo not shown) [compound 33], the IC50 under setting [1] amounted to 4.63 µM.

Take `CCCCCCCCc1ccc(CCC(N)(CO)CO)cc1` [compound 35]: the IC50 stood at 4.76 µM.

`COC(=O)c1sc(-c2cccs2)cc1N1C(=O)C=CC1=O` [compound 36]: half-maximal inhibition (IC50) required 4.87 µM.

Under setting [1], `O=C(Nc1ccc(Br)c(C(F)(F)F)c1)c1cccs1` [compound 38] gave an IC50 of 4.96 µM.

As to `Cc1ccc(S(=O)(=O)C=CC#N)cc1` [compound 39], the IC50 is 5.07 µM.

As for `COC(=O)Nc1nc2cc(SC(C)C)ccc2[nH]1` [compound 40], 5.08 µM corresponded to half-maximal inhibition under setting [1] (IC50).

The compound `Cc1cc(C)cc(N2C(=O)C=CC2=O)c1` [compound 42] returned an IC50 of 5.31 µM.

Consider `O=[N+]([O-])/C=C/c1ccc2c(c1)OCO2` [compound 43], for which, under setting [1], the 50% inhibitory concentration (IC50) was determined as 5.31 µM.

Consider `Cc1ccccc1Nc1nc(Nc2ccccc2)c2cnn(C)c2n1` [compound 44], for which the IC50 was determined as 5.38 µM.

`CCC(C)c1ccc(N2C(=O)C=CC2=O)cc1` (stereo not shown) [compound 45] displayed an IC50 of 5.49 µM.

As for `COc1ccc(OCc2nnc3sc(-c4ccc(OC)c(OC)c4)nn23)cc1` [compound 47], 5.59 µM corresponded to half-maximal inhibition under setting [1] (IC50).

The compound `O=C1C=CC(=O)N1CCc1ccccc1` [compound 48] gave an IC50 under setting [1] of 5.63 µM.

`c1ccc(CCNc2ncnc3ccsc23)cc1` [compound 49] displayed an IC50 under setting [1] of 5.83 µM.

For the compound `CCCCCCCCCOc1ccc2[nH]cc(CCN)c2c1` [compound 50], the half-inhibitory concentration (IC50) under setting [1] came out at 6.04 µM.

The compound `OC(CNCc1ccc(-c2ccc(Cl)cc2Cl)o1)c1ccccc1` (stereo not shown) [compound 51] returned an IC50 under setting [1] of 6.09 µM.

With `NC(=O)c1cnc(NCCc2ccc(O)c(Cl)c2)nc1NCc1ccccc1` [compound 52], the IC50 came out at 6.28 µM.

The compound `Cc1noc2ncnc(N3CCC(c4ccccc4)C3)c12` (stereo not shown) [compound 53] registered an IC50 under setting [1] of 6.29 µM.

In turn, `CC(C)(c1ccc(OCC2CO2)cc1)c1ccc(OCC2CO2)cc1` (stereo not shown) [compound 54] had an IC50 under setting [1] of 6.42 µM.

`Clc1ccc(-c2ccc(CNCc3ccc4c(c3)OCO4)o2)cc1` [compound 55] showed an IC50 under setting [1] of 6.59 µM.

`CCOC(=O)C1CCN(c2ncnc3scc(C)c23)CC1` [compound 56]: the IC50 under setting [1] came to 6.6 µM.

Take `COc1cc(Nc2ncc3ccn(-c4cccc(CCC#N)c4)c3n2)cc(OC)c1OC` [compound 57]: half-maximal inhibition under setting [1] (IC50) required 6.84 µM.

For the compound `Cc1oc2ncnc(N3CCC(C(=O)NCc4ccc(Cl)cc4)CC3)c2c1C` [compound 58], half-maximal inhibition under setting [1] (IC50) required 6.87 µM.

Turning to `Cc1ccc(Cl)cc1N1CCN(C(=O)C2CCN(Cc3nc(-c4ccc(Cl)cc4)oc3C)CC2)CC1` [compound 59], the IC50 under setting [1] came out at 6.93 µM.

As for `O=C1C=CC(=O)N1c1ccc(-n2ccc(C(F)(F)F)n2)cc1` [compound 60], the IC50 under setting [1] came out at 7.06 µM.

`Cc1ccc2nc(-c3ccc(N4C(=O)CC(N5CCC(C)CC5)C4=O)cc3)sc2c1` (stereo not shown) [compound 61] had an IC50 under setting [1] of 7.28 µM.

Compound `O=c1c2ccccc2oc2cc(O)cc(O)c12` [compound 62] returned an IC50 under setting [1] of 7.59 µM.

In the case of `O=C(Nc1ccc(F)c(Cl)c1)c1ccc(Nc2ccnc(-c3ccc(F)cc3)n2)cc1` [compound 63], the midpoint of inhibition under setting [1], the IC50, lay at 7.65 µM.

For `COc1cc(CN2CCCCCCOc3ccccc3Oc3ccc(Cl)cc3NC(=O)C2)ccc1OCCN(C)C` [compound 64], the midpoint of inhibition under setting [1], the IC50, lay at 7.75 µM.

In the case of `CC(C)(C)c1cc(C=C(C#N)C#N)cc(C(C)(C)C)c1O` [compound 65], under setting [1], the IC50 was determined as 7.87 µM.

For the compound `CCN(CC)CCN1COc2c(cc(Cl)c3cccnc23)C1` [compound 66], the IC50 under setting [1] worked out at 8.08 µM.

The compound `O=C1C=CC(=O)N1Cc1ccc(Cl)cc1` [compound 67] had an IC50 under setting [1] of 8.09 µM.

For `Brc1ccc(-c2ccc(CNCc3ccc4c(c3)OCO4)o2)cc1` [compound 68], the 50% inhibitory concentration (IC50) under setting [1] was found to be 8.1 µM.

Compound `CCCCOc1ccc(-c2cc3c(N4CCN(CC)CC4)nccn3n2)cc1` [compound 69] yielded an IC50 of 8.19 µM.

For the compound `CSc1cccc(N2C(=O)C=CC2=O)c1` [compound 70], the IC50 under setting [1] is 8.2 µM.

`CCN(CC)c1cc(C)c2cc(NC(=O)Nc3ccc(Br)cc3)ccc2n1` [compound 71]: the IC50 under setting [1] was 8.38 µM.

As to `Clc1ccc(-c2ccc(CNCc3ccccn3)o2)c(Cl)c1` [compound 72], the IC50 under setting [1] is 8.46 µM.

Under setting [1], `CC(C)c1ccc2c(c1)CCC1C(C)(CN)CCCC21C` (stereo not shown) [compound 73] displayed an IC50 of 8.59 µM.

In turn, `O=c1cc(-c2ccccc2)cc(-c2ccccc2)n1O` [compound 74] registered an IC50 under setting [1] of 8.63 µM.

For the compound `COc1ccc(-c2cc(C(=O)NCCN3CCCCC3)c3cccc(-c4ccc(F)cc4)c3n2)cc1` [compound 75], 8.74 µM corresponded to half-maximal inhibition under setting [1] (IC50).

Under setting [1], `Cc1ccc(Sc2cccc3nc(N)nc(N)c23)cc1` [compound 76] had an IC50 of 8.75 µM.

Turning to `CC1CCN(c2nc(Cl)nc3ccccc23)CC1` [compound 77], the IC50 under setting [1] stood at 9.01 µM.

Under setting [1], `Nc1nc2ccc(Oc3ccccc3)cc2s1` [compound 78] returned an IC50 of 9.2 µM.

`CN(C)CC1COc2ccccc2C1=O` (stereo not shown) [compound 79] yielded an IC50 under setting [1] of 9.27 µM.

As for `O=C1C=CC(=O)N1c1ccccc1Oc1ccc(Cl)cc1Cl` [compound 80], the IC50 under setting [1] was 9.65 µM.

Compound `COc1ccc(CC2NCC(O)C2OC(C)=O)cc1` (stereo not shown) [compound 81] showed an IC50 of 9.69 µM.

As for `OC(CNCc1ccc(-c2cc(Cl)ccc2Cl)o1)c1ccccc1` (stereo not shown) [compound 82], under setting [1], the IC50 was determined as 9.78 µM.

For the compound `Cc1nn2c(NCCN(C)C)cc(C(C)(C)C)nc2c1-c1ccc(F)cc1` [compound 83], the IC50 under setting [1] is 9.92 µM.

In turn, `Brc1ccc(-c2ccc(CNCc3ccco3)o2)cc1` [compound 85] returned an IC50 under setting [1] of 9.96 µM.

`Cc1nc(NCc2ccccc2)c2c(C)noc2n1` [compound 86] displayed a concentration for half-maximal inhibition (IC50) under setting [1] of 9.99 µM.
